Holding throughout (assay type): in vivo
Assay [1] has as its system foxtail, green (green foxtail, Setaria viridis). The experiment in a line: Test A preemergence, foxtail, green. The note with it: Setaria, pre-emergence, 240 h, 0 to 100 scale (0 no effect, 100 complete control), read-out: Plant response rating, Foxtail, Green; for pest or weed control at 125 g/ha: 125 g ai/ha; for pest or weed control at 31 g/ha: 31 g ai/ha. From the text:
(§1) Seeds of plant species selected from barnyardgrass (Echinochloa crus-galli), kochia (Kochia scoparia), ragweed (common ragweed, Ambrosia elatior), ryegrass, Italian (Italian ryegrass, Lolium multiflorum), foxtail, giant (giant foxtail, Setaria faberii), foxtail, green (green foxtail, Setaria viridis) and pigweed (Amaranthus retroflexus) were planted into a blend of loam soil and sand and treated preemergence with a directed soil spray using test chemicals formulated in a non-phytotoxic solvent mixture which included a surfactant.
(§2) At the same time, plants selected from these weed species and also wheat (Triticum aestivum), corn (Zea mays), blackgrass (Alopecurus myosuroides), and galium (catchweed bedstraw, Galium aparine) were planted in pots containing the same blend of loam soil and sand and treated with postemergence applications of test chemicals formulated in the same manner. Plants ranged in height from 2 to 10 cm and were in the one- to two-leaf stage for the postemergence treatment. Treated plants and untreated controls were maintained in a greenhouse for approximately 10 days, after which time all treated plants were compared to untreated controls and visually evaluated for injury. […] A dash (-) response means no test result.

In assay [2] the test system is foxtail, giant (giant foxtail, Setaria faberii). The experiment in a line: Test A postemergence, foxtail, giant. To be noted: Setaria faberi, post-emergence, 240 h, 0 to 100 scale (0 no effect, 100 complete control), read-out: Plant response rating, Foxtail, Giant; for pest or weed control at 31 g/ha: 31 g ai/ha; for pest or weed control at 125 g/ha: 125 g ai/ha.
Description: as §1, §2

Assay [3] shares this test system. The experiment in a line: Test A preemergence, foxtail, giant. To be noted: Setaria faberi, pre-emergence, 240 h, 0 to 100 scale (0 no effect, 100 complete control), read-out: Plant response rating, Foxtail, Giant; for pest or weed control at 31 g/ha: 31 g ai/ha; for pest or weed control at 125 g/ha: 125 g ai/ha.
Description: as §1, §2

Take `O=C1OC(CCCC(F)(F)F)c2c(Oc3ncc(Cl)cn3)cccc21` (stereo not drawn) [Compound 1, 4-[(5-Chloro-2-pyrimidinyl)oxy]-3-(4,4,4-trifluorobutyl)-1(3H)-isobenzofuranone]: in assay [1], the pest or weed control at 125 g/ha turned out to be 100%. Further, in assay [1] (500 g ai/ha), the pest or weed control at 500 g/ha worked out at 100%.
Turning to `O=C1O[C@@H](CCCC(F)(F)F)c2c(Oc3ncc(Cl)cn3)cccc21` [Compound 2, (3S)-4-[(5-Chloro-2-pyrimidinyl)oxy]-3-(4,4,4-trifluorobutyl)-1-(3H)-isobenzofuranone], in assay [1], the pest or weed control at 31 g/ha turned out to be 0% and the pest or weed control at 125 g/ha is 30%.
The matching figures for `O=C1O[C@H](CCCC(F)(F)F)c2c(Oc3ncc(Cl)cn3)cccc21` [Compound 3, (3R)-4-[(5-Chloro-2-pyrimidinyl)oxy]-3-(4,4,4-trifluorobutyl)-1-(3H)-isobenzofuranone]: 100% and 100%.
On the same counts, the results for `O=C1OC(CCC(F)(F)F)c2c(Oc3ncc(Cl)cn3)cccc21` (stereo not drawn) [Compound 4, 4-[(5-Chloro-2-pyrimidinyl)oxy]-3-(3,3,3-trifluoropropyl)-1(3H)-isobenzofuranone] are 100% and 100%.
As for `O=C1COC(CCCC(F)(F)F)c2c(Oc3ncc(Cl)cn3)cccc21` (stereo not drawn) [Compound 5, 8-[(5-Chloro-2-pyrimidinyl)oxy]-1-(4,4,4-trifluorobutyl)-1H-2-benzopyran-4(3H)-one], in assay [1], the pest or weed control at 31 g/ha turned out to be 0% and the pest or weed control at 125 g/ha worked out at 0%.
Regarding `FC(F)(F)CCCC1OCc2cccc(Oc3ncc(Cl)cn3)c21` (stereo not drawn) [Compound 7, 5-chloro-2-[[1,3-dihydro-3-(4,4,4-trifluorobutyl)-4-isobenzofuranyl]oxy]-pyrimidine], in assay [1], the pest or weed control at 31 g/ha was determined as 80% and the pest or weed control at 125 g/ha was 100%.
Consider `FC(F)(F)CCC1OCc2cccc(Oc3ncc(Cl)cn3)c21` (stereo not drawn) [Compound 8, 5-Chloro-2-[[1,3-dihydro-3-(3,3,3-trifluoropropyl)-4-isobenzofuranyl]oxy]pyrimidine], for which, in assay [1], the pest or weed control at 31 g/ha is 80% and the pest or weed control at 125 g/ha was determined as 100%.
Consider `FC(F)(F)CCCC1CCc2cccc(Oc3ncc(Cl)cn3)c21` (stereo not drawn) [Compound 9, 5-Chloro-2-[[2,3-dihydro-3-(4,4,4-trifluorobutyl)-1H-inden-4-yl]oxy]pyrimidine], for which, in assay [1], the pest or weed control at 31 g/ha was found to be 70% and the pest or weed control at 125 g/ha came out at 100%.
On the same counts, the results for `OC1CC(CCCC(F)(F)F)c2c(Oc3ncc(Cl)cn3)cccc21` (stereo not drawn) [Compound 10, 4-[(5-Chloro-2-pyrimidinyl)oxy]-2,3-dihydro-3-(4,4,4-trifluorobutyl)-1H-inden-1-ol] are 60% and 90%.
On the same counts, the results for `O=C1CC(CCC(F)(F)F)c2c(Oc3ncc(Cl)cn3)cccc21` (stereo not drawn) [Compound 11, 4-[(5-Chloro-2-pyrimidinyl)oxy]-2,3-dihydro-3-(3,3,3-trifluoropropyl)-1H-inden-1-one] are 10% and 70%.
Turning to `FC(F)(F)CC[C@H]1OCc2cccc(Oc3ncc(Cl)cn3)c21` [Compound 20, 5-Chloro-2-[[(3R)-1,3-dihydro-3-(3,3,3-trifluoropropyl)-4-isobenzofuranyl]oxy]-pyrimidine], the results for the pest or weed control at 31 g/ha in assay [2] and in assay [3] were 50% and 100%, respectively. The pest or weed control at 125 g/ha in assay [2] came out at 90%; in assay [3], 100%.
Consider `FC(F)(F)CC[C@@H]1OCc2cccc(Oc3ncc(Cl)cn3)c21` [Compound 21, 5-Chloro-2-[[(3S)-1,3-dihydro-3-(3,3,3-trifluoropropyl)-4-isobenzofuranyl]oxy]-pyrimidine], for which the pest or weed control at 31 g/ha in assay [2] and in assay [3] was 0% each time. For the same molecule, the pest or weed control at 125 g/ha in assay [2] amounted to 20%; in assay [3], 0%.
For `O=C1c2cccc(Oc3ncc(Cl)cn3)c2C1CCCC(F)(F)F` (stereo not drawn) [Compound 22, 2-[(5-Chloro-2-pyrimidinyl)oxy]-8-(4,4,4-trifluorobutyl)bicyclo[4.2.0]octa-1,3,5-trien-7-one], in assay [2], the pest or weed control at 31 g/ha is 0% and the pest or weed control at 125 g/ha stood at 40%. Moreover, in assay [3], the pest or weed control at 31 g/ha is 10% and the pest or weed control at 125 g/ha turned out to be 70%.
The matching figures for `O=C1c2cccc(Oc3ncc(Cl)cn3)c2C1CCC(F)(F)F` (stereo not drawn) [Compound 24, 2-[(5-Chloro-2-pyrimidinyl)oxy]-8-(3,3,3-trifluoropropyl)bicyclo[4.2.0]octa-1,3,5-trien-7-one]: 0%, 50%, 0% and 20%.
As for `O=C1OCC(CCC(F)(F)F)c2c(Oc3ncc(Cl)cn3)cccc21` (stereo not drawn) [Compound 25, 5-[(5-Chloro-2-pyrimidinyl)oxy]-3,4-dihydro-4-(3,3,3-trifluoropropyl)-1H-2-benzopyran-1-one], in assay [2], the pest or weed control at 31 g/ha was determined as 0% and the pest or weed control at 125 g/ha came to 30%. Also, in assay [3], the pest or weed control at 31 g/ha was 20% and the pest or weed control at 125 g/ha turned out to be 90%.
For `O=C1OCc2cccc(Oc3ncc(Cl)cn3)c2C1CCCC(F)(F)F` (stereo not drawn) [Compound 26, 5-[(5-Chloro-2-pyrimidinyl)oxy]-1,4-dihydro-4-(4,4,4-trifluorobutyl)-3H-2-benzopyran-3-one], the pest or weed control at 31 g/ha in assay [2] and in assay [3] was 0% throughout. The pest or weed control at 125 g/ha turned out to be 20% in assay [2] and 60% in assay [3].
Consider `FC(F)(F)CCCC1OCCc2cccc(Oc3ncc(Cl)cn3)c21` (stereo not drawn) [Compound 27, 5-Chloro-2-[[3,4-dihydro-1-(4,4,4-trifluorobutyl)-1H-2-benzopyran-8-yl]oxy]pyrimidine], for which, in assay [2], the pest or weed control at 31 g/ha was 10% and the pest or weed control at 125 g/ha stood at 30%. Further, in assay [3], the pest or weed control at 31 g/ha was determined as 50% and the pest or weed control at 125 g/ha amounted to 100%.
`O=C1OCc2cccc(Oc3ncc(Cl)cn3)c2C1CCC(F)(F)F` (stereo not drawn) [Compound 29, 5-[(5-Chloro-2-pyrimidinyl)oxy]-1,4-dihydro-4-(3,3,3-trifluoropropyl)-3H-2-benzopyran-3-one]: the pest or weed control at 31 g/ha in assay [2] and in assay [3] was 0% each time. Further, the pest or weed control at 125 g/ha came out at 10% in assay [2] and 20% in assay [3].
On to `O=C1CCC(CCCC(F)(F)F)c2c(Oc3ncc(Cl)cn3)cccc21` (stereo not drawn) [Compound 30, 5-[(5-Chloro-2-pyrimidinyl)oxy]-3,4-dihydro-4-(4,4,4-trifluorobutyl)-1(2H)-naphthalenone], for which the pest or weed control at 31 g/ha in assay [2] is 0%; in assay [3], 10%. For the same molecule, the pest or weed control at 125 g/ha was found to be 40% in assay [2] and 80% in assay [3].
The matching figures for `FC(F)(F)CCC1OCCc2cccc(Oc3ncc(Cl)cn3)c21` (stereo not drawn) [Compound 32, 5-Chloro-2-[[3,4-dihydro-1-(3,3,3-trifluoropropyl)-1H-2-benzopyran-8-yl]oxy]pyrimidine]: 0%, 0%, 20% and 50%.
The matching figures for `FC(F)(F)CCCC1COc2cccc(Oc3ncc(Cl)cn3)c21` (stereo not drawn) [Compound 33, 5-Chloro-2-[[2,3-dihydro-3-(4,4,4-trifluorobutyl)-4-benzofuranyl]oxy]pyrimidine]: 20%, 10%, 20% and 100%.
In the case of `O=C1OCc2cccc(Oc3ncc(Cl)cn3)c2C1CCCCC(F)(F)F` (stereo not drawn) [Compound 34, 5-[(5-Chloro-2-pyrimidinyl)oxy]-1,4-dihydro-4-(5,5,5-trifluoropentyl)-3H-2-benzopyran-3-one], in assay [2], the pest or weed control at 31 g/ha is 0% and the pest or weed control at 125 g/ha was found to be 20%. In assay [3], the pest or weed control at 31 g/ha was 0% and the pest or weed control at 125 g/ha turned out to be 10%.
Consider `FC(F)(F)CCC1COc2cccc(Oc3ncc(Cl)cn3)c21` (stereo not drawn) [Compound 36, 5-Chloro-2-[[2,3-dihydro-3-(3,3,3-trifluoropropyl)-4-benzofuranyl]oxy]pyrimidine], for which, in assay [2], the pest or weed control at 31 g/ha was determined as 0% and the pest or weed control at 125 g/ha is 20%. Moreover, in assay [3], the pest or weed control at 31 g/ha is 0% and the pest or weed control at 125 g/ha was 60%.

For the origin of these results see patent publication US11427549B2, “Pyrimidinyloxy benzo-fused compounds as herbicides” (FMC Corporation, priority 2017, dated 2022).
